Here are results for one compound from EP4813376A1, “PHARMACEUTICAL COMPOSITION FOR PREVENTION OR TREATMENT OF BREAST CANCER” (Astrion Inc., priority 2023, dated 2025).

Test [1] concerns SUM149. Kind of test: SRB assay with Bliss synergy scoring, combination with paclitaxel. Type of test: cell-based, human. To be noted: AON-MG23 combined with paclitaxel, SUM149, five days co-treatment, score > 0 indicates a synergistic effect, FIG. 10A. The method, then:
(§1) The combination effect of compound AON-MG23 of the present invention was confirmed using Bliss scoring based on the results of the sulforhodamine B assay (SRB assay). Specifically, human breast cancer cell lines SUM149 and HCC1806 were plated in a 96-well cell culture plate at a density of 1 x 10^3 cells/well. On the next day, paclitaxel, the drug to be tested for the combination effect with compound AON-MG23 of the present invention, was diluted to concentrations for testing, and cells were cultured for 24 hours. After carefully removing the cell culture medium, the cells were co-treated with AON-MG23 and paclitaxel at different concentrations and cultured for five days. […] The absorbance of the dissolved solution was measured at […] using a plate reader. The measured absorbance values were compared to the control group, converted into percentages, and saved in an Excel file format. […] The presence of a synergistic effect was evaluated according to the following criteria based on relevant literature (Bliss, C. I. (1939). The toxicity of poisons applied jointly. Annals of Applied Biology, 26(3), 585-615.): a score > 0 indicates a synergistic effect; a score = 0 indicates an independent effect; and a score < 0 indicates an antagonistic effect.

The subject of test [2] is HCC1806. The test is described as above. Type of test: cell-based, human. The following applies: AON-MG23 combined with paclitaxel, HCC1806, five days co-treatment, score > 0 indicates a synergistic effect, FIG. 10B. As for the experimental part: as §1
Test [3] has as its system four breast cancer cell lines (SUM149, BCX010, BT20, MDA-MB-231-LM3). Kind of test: soft agar assay (tumorigenicity). Type of test: cell-based. The following applies: Homo sapiens, 336 h, 100 nM, 500 nM, 1000 nM tested, two weeks, FIGS. 3A and 3B, read-out: concentration from which tumorigenicity was inhibited. The method, then:
To confirm the tumorigenicity inhibitory effect of the compound of the present invention on breast cancer cells, an […] soft agar assay was performed. Specifically, 0.5% agar or 0.7% agar was added to cell culture media diluted with the compound of the present invention at concentrations of 0 nM, 100 nM, 500 nM, and 1000 nM. 2 ml of 0.5% agar containing the compound of the present invention at various concentrations was added to a 6-well cell culture plate and solidified at room temperature. Thereafter, 1 ml of 1 x 10^4 cells of four breast cancer cell lines (SUM149, BCX010, BT20, MDA-MB-231-LM3) and 1 ml of 0.7% agar containing the compound of the present invention at various concentrations were mixed in a 1:1 ratio to prepare a 0.35% solution, and 2 ml of this solution was placed on top of the solidified 0.5% agar. The mixture was then solidified at room temperature until the upper layer was fixed, and then cells were cultured in an incubator at 37 °C and 5% CO2 for two weeks. The formed cell clones were stained and photographed, and then the cell clones were counted and analyzed using Image J software.

Test [4] relates to MDA-MB-231 cells. Briefly: CCK assay, proliferation of breast cancer cells. Type of test: cell-based, human. To be noted: MDA-MB-231, 0.1 to 16 µM, 48 hours, absorbance at 450 nm, FIG. 1. As for the experimental part: Human breast cancer cell line MDA-MB-231 cells were plated in a 96-well plate at a density of 1 x 10^5 cells/well and cultured for 24 hours. Thereafter, the cells were treated with compound AON-MG23 of the present invention at various concentrations and cultured for 48 hours. The cells were treated with the compound of the present invention at various concentrations of 0 µM, 0.1 µM, 0.25 µM, 0.5 µM, 1 µM, 2 µM, 4 µM, 8 µM, and 16 µM. 10 µL of cell counting kit (CCK) reagent was added and allowed to react for one hour, and then the absorbance was measured at 450 nm.

Test [5] concerns MDA-MB-231. Briefly: Matrigel invasion assay (Transwell membrane insert), 24 hours. To be noted: 0.5 µM and 1 µM, reduction dependent on concentration, FIG. 8. Type of test: cell-based, human. The method, then:
Breast cancer cell line MDA-MB-231 was seeded at a density of 6 x 10^4 cells/well on top of a membrane filter coated with Matrigel(Transwell membrane insert, Corning). Thereafter, the cells were treated with compound AON-MG23 of the present invention at concentrations of 0 µM (DMSO), 0.5 µM, and 1 µM, and cultured in a CO2 incubator at 37 °C for 24 hours. After 24 hours of culture, the cells on the bottom surface of the membrane filter were stained and photographed under a microscope, and counted and analyzed using Image J software.

In test [6] the test system is MDA-MG231-LM3 cells. Kind of test: Transwell membrane filter migration assay. Type of test: cell-based, human. The following applies: cells pre-treated with 0.5 µM, eight hours, FIG. 6. The method, then:
Breast cancer cell line MDA-MG231-LM3 cells pre-treated with 0.5 µM of compound AON-MG23 of the present invention and cells that were not treated were prepared. […] The membrane filter seeded with the cells was placed into a 24-well plate supplemented with a cell culture medium containing fetal bovine serum and cultured for eight hours in an incubator at 37°C and 5% CO2. Cells that migrated to the bottom surface of the membrane filter were stained and photographed under a microscope, and counted and analyzed using Image J software.

For test [7], the system named is MDA-MB-231 cells. Briefly: cell migration assay in SPLScar Block plates. Type of test: cell-based. To be noted: Homo sapiens, 24 hours, FIG. 4, read-out: inhibition of migration of MDA-MB-231 cells compared to the control group. The method, then: Human breast cancer cell line MDA-MB-231 cells were seeded in SPLScar Block plates (SPL LIFE SCIENCES) at a density of 7 x 10^4/well and cultured for 24 hours. […], the blocks were removed, and at the same time, compound AON-MG23 of the present invention was applied at various concentrations. Thereafter, cells were cultured in a CO2 incubator at 37 °C for 24 hours. The cells were treated with the compound of the present invention at various concentrations of 0 µM, 0.5 µM, 1 µM, 2 µM, and 4 µM. Photographs were taken before and after each culture, and the migration distance of the cells was measured using Image J software. Based on the results, the inhibition of the cell migration was analyzed.

The test system of test [8] is MDA MB-231 cells. Briefly: Matrigel invasion assay (Transwell invasion chamber), 20 hours. Type of test: cell-based, human. The following applies: 0.5, 1, 2, 4 µM, FIG. 7. As for the experimental part:
Human breast cancer cell line MDA MB-231 cells were seeded at a density of 6 x 10^4 cells/well on top of a filter coated with Matrigel (Transwell invasion chamber, Corning), treated with compound AON-MG23 of the present invention (0, 0.5, 1, 2, 4 µM), and cultured in a CO2 in an incubator at 37 °C for 20 hours. After culture, cell fixation and staining were performed using the Diff-Quick stain Kit (Sysmex, Kobe, Japan). The stained cells were imaged under a microscope, and the cells were counted and statistically analyzed using Image J software.

Test [9] relates to six breast cancer cell lines (SUM149, BCX010, BT20, MDA-MB-231-LM3, CAL51, PyMT-N). Kind of test: colony formation test. Type of test: cell-based, human. To be noted: 0.25 µM, 0.5 µM and 1 µM, 11 to 14 days, all six cell lines, FIGS. 2A to 2C. As for the experimental part: To confirm the proliferation inhibitory effect of the compound of the present invention on breast cancer cells, a colony formation test was conducted. Specifically, six breast cancer cell lines (SUM149, BCX010, BT20, MDA-MB-231-LM3, CAL51, PyMT-N) were plated in a 6-well cell culture plate at a density of 250 or 1,000 cells per well. On the next day, the cell culture medium was removed and replaced with a cell culture medium containing compound AON-MG23 of the present invention at concentrations of 0 µM, 0.25 µM, 0.5 µM, and 1 µM. After culturing the cells for 11 to 14 days, the resulting cell colonies were stained and photographed, and then the cell colonies were counted and analyzed using Image J software.

In the case of `COc1cc(N2CCC(N(C)C)CC2)ccc1Nc1ncc(Cl)c(Nc2ccccc2N(C2CC2)S(C)(=O)=O)n1` [AON-MG23, N-(2-((5-chloro-2-((4-(4-(dimethylamino)piperidin-1-yl)-2-methoxyphenyl)amino)pyrimidin-4-yl)amino)phenyl)-N-cyclopropylmethanesulfonamide], the Bliss synergy scoring in test [1] amounted to 18.743 points; in test [2], 9.249 points. In [3], the minimal effective concentration is at least 0.1 µM. In addition, in test [4], the “proliferation of breast cancer cells” value was “inhibited”. In addition, the “degree of penetration into Matrigel compared to the untreated control group” value in [5] and in test [8] was “reduced degree of penetration into Matrigel” in each case. The “cell migration compared to the untreated group” value in test [6] was “inhibited”. Moreover, in test [7], the inhibition at 0.5 µM was found to be 50%. In addition, the cell colony formation result in test [9] is on record as “inhibited”.
